The record followed here is paper PMC9354954, “Assessing Bioavailability and Bioactivity of 4-Hydroxythiazolidine-2-Thiones, Newly Discovered Glucosinolate Degradation Products Formed During Domestic Boiling of Cabbage” (Frontiers in Nutrition, 2022).

In series [1] the test system is HepG2 cells. The series is described as follows: Metabolite formation in medium after 24 h incubation with HepG2 cells (HPLC-UV, qToF). The class given is in vitro ADME, human. The following applies: 100 μM, 24 h with HepG2 cells, vs spiked medium without cells. As for the experimental part:
Additionally, the removed non-spiked and spiked medium after 24 h of cell incubation was measured by the UPLC-DAD system (see Section Stability of 4-Hydroxythiazolidine-2-Thiones in a Stomach Model) and HPLC method 2 at 280 ± 2 nm and after 10-fold pre-concentration, using solid-phase extraction (Chromabond®, C18, 3 mL/500 mg, Macherey-Nagel) by an HPLC-DAD-ESI-qToF system (Agilent 1290 Infinity II for the binary pump, Agilent 1290 Infinity for autosampler, degasser, column oven, Agilent 1260 Infinity for DAD detector, and Agilent 1260 Infinity II, for an isocratic pump for adding reference mass solution) using A = water and B = MeCN: 0 to 3 min 2% B, an increase to 14 min up to 98% B, holding for 5.4 min followed by a decrease to 2% B at 20 min, and re-equilibration with 2% B for 4.5 min, using a flow rate of 300 μL/min, Agilent Zorbax Eclipse Plus C8 column (see Section Stability of 4-Hydroxythiazolidine-2-Thiones in a Stomach Model), and a column oven temperature of 35°C. […]

Series [2] in a line: Determination of log P (octanol/water). The class given is physicochemical. The settings on record: room temperature; for concentration ratio in the octanol phase compared to the water phase: 18 h, triplicates; for logP at 18 h: octanol/water. As for the experimental part:
For the determination of log P of the HTTs, two solutions were used: water saturated with octanol and octanol saturated with water. […] The spiked octanol-water mixture was vortexed for 30 s and the mixture was incubated for 18 h at room temperature to obtain analyte equilibrium distribution. For determination of the log P-value, 50 μL of the water phase was taken and measured by HPLC-UV at 274 ± 2 nm with HPLC method 2 (see Section Stability of 4-Hydroxythiazolidine-2-Thiones in a Stomach Model) with an injection volume of 10 μL. The analyte concentration in the water phase was determined by using external calibration. The relative analyte content in the water phase was calculated by using the following equation:
analyte content in water phase in % =measured concentration in water phase of the mixture/2 · concentration in pure water reference ·100%
The relative analyte content in the octanol phase was calculated at 100% minus the relative analyte concentration in the water phase. The reported results are the mean ± SD of the three determined log P-values for the three repetitions.

Series [3] in a line: Antioxidant potential, ABTS assay. The following applies: compared to compound free blank. On the procedure:
To evaluate the potential of allyl HTT and 4-MSOB HTT to act as antioxidants, ABTS and DPPH were used as model radicals and Trolox as reference antioxidants based on Shalaby and Shanab ([28]). In total, 1.5 mg of ABTS and 0.26 mg potassium peroxodisulfate were dissolved in 4 mL of pure water and incubated in the dark overnight at room temperature. Afterward, 36 mL of MeOH were added to obtain the fresh ABTS working solution. In the case of the DPPH assay, 1.1 mg of DPPH were dissolved in 4 mL of MeOH and incubated for 2 h in the dark at 4°C, followed by the addition of 36 mL of MeOH to obtain the fresh DPPH working solution. Standards of Trolox, allyl HTT, and 4-MSOB HTT were prepared in water/MeOH (90/10, v/v%) at concentrations in the range of 6.25–100 μM. To detect the antioxidant potential, 100 μL of standard or water/MeOH (90/10, v/v%) as control were added to 1,000 μL of ABTS or DPPH working solution, and the extinction was measured directly after mixing and after 6 min of incubation in the dark with a spectrometer (UviLine 9100, Schott Instruments, Mainz, Germany) at 734 nm in the case of ABTS assay and 515 nm in DPPH assay (each prepared as duplicate). The results are reported as mean ± SD of the reduction of the extinction compared to the control.

The target of series [4] is T1, glycogen synthase kinases-3α (Homo sapiens, UniProt P49840).
T1 construct: purchased Life Technologies/Thermo Fisher Scientific, SelectScreen Services (Madison, WI, USA)
Briefly: GSK-3 inhibition, Z'-LYTE kinase assay. The class given is biochemical. On the procedure: (§1) The determination of the inhibition of glycogen synthase kinases-3α and -3β by allyl HTT and 4-MSOB HTT was performed via contract research with Life Technologies/Thermo Fisher Scientific by sending the compounds dissolved in 100% DMSO to SelectScreen Services (Madison, WI, USA). The tested concentrations in the Z'-LYTE assay were up to 100 μM and standards were prepared as duplicates. The Z'-LYTE kinase assay is a fluorescence-based assay using a coupled-enzyme format and the different sensitivity of phosphorylated and non-phosphorylated peptides regarding their fluorescence. The data are shown as mean ± SD. Due to the impression of significant bioactivity, further comparisons were performed. […] Stars report different significance levels: ^*p ≤ 0.05, ^**p ≤ 0.01, and ^***p ≤ 0.001.

For series [5], the system named is Caco-2 cell layer.
Series [6] has as its target T2, glycogen synthase kinases-3β (Homo sapiens, UniProt P49841).
T2 construct: purchased Life Technologies/Thermo Fisher Scientific, SelectScreen Services (Madison, WI, USA)
The series is described as follows: GSK-3 inhibition, Z'-LYTE kinase assay. The class given is biochemical. On the procedure: as §1

Setting [7] is: inverse exposure: spiked in the lower compartment, 2 min.
[8] abbreviates: inverse exposure: spiked in the lower compartment, 1 h.
[9] abbreviates: inverse exposure: spiked in the lower compartment, 2 h.
The mark [10] stands for this setting: inverse exposure: spiked in the lower compartment, 24 h.
Setting [11] is: spiked in the upper compartment, 2 min.
[12] abbreviates: spiked in the upper compartment, 1 h.
The mark [13] stands for this setting: spiked in the upper compartment, 2 h.
The mark [14] stands for this setting: spiked in the upper compartment, 24 h.

Read-outs that look alike come from different tables or passages of the source.

T2 sequence (P49841 whole entry): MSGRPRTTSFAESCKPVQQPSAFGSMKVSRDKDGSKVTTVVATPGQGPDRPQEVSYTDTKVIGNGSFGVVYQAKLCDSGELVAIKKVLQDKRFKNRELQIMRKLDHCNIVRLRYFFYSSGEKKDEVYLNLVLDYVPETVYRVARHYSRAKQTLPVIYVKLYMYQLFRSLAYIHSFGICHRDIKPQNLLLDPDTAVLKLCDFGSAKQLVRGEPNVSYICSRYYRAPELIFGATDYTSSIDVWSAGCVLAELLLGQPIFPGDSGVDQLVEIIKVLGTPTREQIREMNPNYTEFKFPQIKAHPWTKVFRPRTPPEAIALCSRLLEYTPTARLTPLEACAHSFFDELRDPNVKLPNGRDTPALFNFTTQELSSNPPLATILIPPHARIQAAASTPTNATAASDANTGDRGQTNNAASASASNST
T1 sequence (P49840 whole entry): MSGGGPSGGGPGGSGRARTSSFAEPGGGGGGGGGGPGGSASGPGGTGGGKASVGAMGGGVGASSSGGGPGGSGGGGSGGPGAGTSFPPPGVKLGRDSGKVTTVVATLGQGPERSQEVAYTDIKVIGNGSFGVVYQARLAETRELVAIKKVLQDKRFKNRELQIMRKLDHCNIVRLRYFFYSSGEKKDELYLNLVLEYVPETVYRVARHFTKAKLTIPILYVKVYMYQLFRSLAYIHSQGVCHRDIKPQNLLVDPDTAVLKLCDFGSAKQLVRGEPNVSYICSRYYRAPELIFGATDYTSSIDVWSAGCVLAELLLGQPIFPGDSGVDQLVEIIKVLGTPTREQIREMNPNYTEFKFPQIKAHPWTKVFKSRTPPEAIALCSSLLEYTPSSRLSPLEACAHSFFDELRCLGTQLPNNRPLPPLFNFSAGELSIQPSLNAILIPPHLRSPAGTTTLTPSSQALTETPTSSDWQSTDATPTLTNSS

One may read the logP as the decadic logarithm of the partition coefficient of the neutral form, usually between octanol and water. In general, inhibition refers to how much of the control response was suppressed. A higher inhibition goes with a strong effect. Take `C[S+]([O-])CCCCN1C(=S)SCC1O` (centres unmarked) [4-MSOB HTT, 4-hydroxy-3-(4-(methylsulfinyl)butyl)thiazolidine-2-thione]: the “newly formed metabolites in spiked medium (LC-UV chromatogram)” value in series [1] is reported as “a new peak was observed”. In addition, the “concentration ratio in the octanol phase compared to the water phase” value in series [2] was determined as 0.45 ± 0.04. The same compound came in with a logP at 18 h in series [2] of -0.35 ± 0.04. The “Relative signal reduction of the extinction value of the radical ABTS” value in series [3] (6.25 µM) is recorded as 0.6 ± 0.5%; in series [3] (12.5 µM) it was -0.1 ± 0.5%; in series [3] (25 µM) it was -0.5 ± 0.4%; in series [3] (50 µM) it was 1.1 ± 0.8%; in series [3] (100 µM), 0.4 ± 0.5%. Besides, the inhibition at 100 µM in series [4] was roughly 29%. In addition, the “Concentration ratio of compartment non-spiked vs. spiked” value stood at 0% in series [5] (setting [7]); 5% in series [5] (setting [8]); 11% in series [5] (setting [9]); 99% in series [5] (setting [10]); 0% in series [5] (setting [11]); 1% in series [5] (setting [12]). The “Concentration ratio of compartment non-spiked vs. spiked” value in series [5] (setting [13]) is listed as 3%; in series [5] (setting [14]), 54%.

Consider `C=CCN1C(=S)SCC1O` (centres unmarked) [allyl HTT, 3-allyl-4-hydroxythiazolidine-2-thione], for which the “newly formed metabolites in spiked medium (LC-UV chromatogram)” value in series [1] is “did not show any additional signals”. Moreover, in series [2], the “concentration ratio in the octanol phase compared to the water phase” value was determined as 8.1 ± 0.4. Further, the logP at 18 h in series [2] came to 0.91 ± 0.02. In addition, the “Relative signal reduction of the extinction value of the radical ABTS” value was -0.2 ± 0.3% in series [3] (6.25 µM); -0.3 ± 0.3% in series [3] (12.5 µM); 0.4 ± 0.4% in series [3] (25 µM); 0.3 ± 0.5% in series [3] (50 µM); -0.3 ± 0.3% in series [3] (100 µM). In series [6], the inhibition at 100 µM was roughly 20%. In series [5] (human, Caco-2, 100 μM), the “measured ratio for the higher uptake of allyl HTT compared to 4-MSOB HTT” value was found to be 10 fold. In addition, the “Concentration ratio of compartment non-spiked vs. spiked” value was found to be 0% in series [5] (setting [7]); 39% in series [5] (setting [8]); 64% in series [5] (setting [9]); 102% in series [5] (setting [10]); 1% in series [5] (setting [11]); 17% in series [5] (setting [12]). In addition, the results for the “Concentration ratio of compartment non-spiked vs. spiked” value in series [5] (setting [13]) and in series [5] (setting [14]) were 42% and 96%, respectively.
